Assay [1] addresses T1, COX-1 (Ovis aries, UniProt P05979).
T1 construct: purified enzyme from ram seminal vesicles; from tissue; host or cells: ram seminal vesicles
T1 sequence (P05979 25-600): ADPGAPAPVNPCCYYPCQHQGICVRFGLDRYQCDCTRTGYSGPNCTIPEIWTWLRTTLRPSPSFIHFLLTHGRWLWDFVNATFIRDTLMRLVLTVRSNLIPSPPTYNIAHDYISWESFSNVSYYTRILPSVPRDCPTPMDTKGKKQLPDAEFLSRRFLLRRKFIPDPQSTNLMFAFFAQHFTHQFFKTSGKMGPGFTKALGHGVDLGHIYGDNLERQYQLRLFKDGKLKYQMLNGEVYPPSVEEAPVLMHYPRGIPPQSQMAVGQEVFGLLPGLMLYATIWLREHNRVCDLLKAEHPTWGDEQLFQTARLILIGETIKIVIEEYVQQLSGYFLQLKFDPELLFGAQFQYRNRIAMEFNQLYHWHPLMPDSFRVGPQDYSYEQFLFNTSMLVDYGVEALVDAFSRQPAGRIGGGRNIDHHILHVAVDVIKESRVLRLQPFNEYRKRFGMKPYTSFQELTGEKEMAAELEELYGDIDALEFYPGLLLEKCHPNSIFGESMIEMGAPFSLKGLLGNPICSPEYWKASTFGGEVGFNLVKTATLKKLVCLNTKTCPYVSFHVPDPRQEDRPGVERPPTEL
As to the kind of experiment: Inhibition of COX-1 enzymatic activity (PGE2 produced determined by EIA). It is filed as biochemical, ram (purified enzyme from ram seminal vesicles). Conditions: 10^-4 M; ram seminal vesicle COX-1, arachidonic acid 6 μM. How it is done:
(§1) The molecule studied is preincubated for 10 minutes at 25° C. with 2 U of COX-1 (purified enzyme from ram seminal vesicles) or 1 U of COX-2 (purified enzyme from ewe placenta). Arachidonic acid (6 μM for COX-1, 4 μM for COX-2) is added to the reaction medium and incubation is carried out for 5 minutes at 25° C. When incubation has ended, the enzymatic reaction is stopped by the addition of 1 N HCl and the PGE2 produced is deter mined by EIA. […] For other examples, the results are expressed in the form of IC50, the concentration in μM corresponding to 50% inhibition of the maximal enzymatic activity upon COX-1 and COX-2 (n=1 to 4 determinations).

For assay [2], the target named is T2, COX-2 (Ovis aries, UniProt P79208).
T2 construct: purified enzyme from ewe placenta; from tissue; host or cells: ewe placenta
T2 sequence (P79208 17-603): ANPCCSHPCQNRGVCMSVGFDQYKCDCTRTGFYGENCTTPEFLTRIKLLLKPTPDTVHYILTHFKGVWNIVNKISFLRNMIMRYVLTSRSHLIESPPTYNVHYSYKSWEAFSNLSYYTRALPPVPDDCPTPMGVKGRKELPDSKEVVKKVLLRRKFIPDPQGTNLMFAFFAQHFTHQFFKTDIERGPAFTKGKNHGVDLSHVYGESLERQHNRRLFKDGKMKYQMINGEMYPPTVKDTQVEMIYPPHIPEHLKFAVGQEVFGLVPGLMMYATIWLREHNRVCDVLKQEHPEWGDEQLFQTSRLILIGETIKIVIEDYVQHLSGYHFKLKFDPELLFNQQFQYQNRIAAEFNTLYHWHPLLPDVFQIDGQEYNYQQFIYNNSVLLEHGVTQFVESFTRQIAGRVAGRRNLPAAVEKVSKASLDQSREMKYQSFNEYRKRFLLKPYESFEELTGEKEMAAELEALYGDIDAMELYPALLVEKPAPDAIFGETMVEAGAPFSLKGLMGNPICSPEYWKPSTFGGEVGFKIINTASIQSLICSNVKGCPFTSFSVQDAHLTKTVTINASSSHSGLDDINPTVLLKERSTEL
As to the kind of experiment: Inhibition of COX-2 enzymatic activity (PGE2 produced determined by EIA). It is filed as biochemical, ewe (purified enzyme from ewe placenta). Conditions: ewe placenta COX-2, arachidonic acid 4 μM; for inhibition at 10 µM: 10^-5 M; for IC50: n=1 to 4 determinations; for inhibition at 1 µM: at 10^-6 M. How it is done:
as §1

Assay [3] deals with arthritis with kaolin. As to the kind of experiment: Analgesic activity: arthritis with kaolin in rats. It is filed as in vivo. Conditions: rat, oral, thirty minutes after intra-articular kaolin; dose inducing 50% decrease of the maximal quotations of control. How it is done:
The analgesic activity of the compounds of the Examples was evaluated according to the method of arthritis with kaolin.
The analgesic activity is evaluated in rats by the test of arthritis with kaolin. Thirty minutes after intra-articular administration of an aqueous 10% suspension of kaolin, the product is administered orally at a rate of 1 ml 100 g (n=10 animals per dose). The results are expressed in the form of ED50, the dose in mg/kg which induces 50% decrease of the maximal quotations obtained in the control batch, calculated by linear regression.

Structures are written as SMILES.

For `CN1CC/C(=C(\c2ccc(S(C)(=O)=O)cc2)c2ccc(Cl)c(Cl)c2)C1=O` [53 Z isomer], at 100 µM the inhibition in assay [1] was 36%. Moreover, testing at 10 µM in assay [2] gave an inhibition of 92%.
For the molecule `CS(=O)(=O)c1ccc(/C(=C2\CCN(Cc3ccccc3)C2=O)c2ccc(Cl)cc2)cc1` [31 Z isomer], the median effective dose (ED50) (in general, the dose at which the effect has come halfway, by size or by number of responders) in assay [3] was 18.5 mg/kg. Further, in assay [1], at 100 µM the inhibition was 88%. Also, the inhibition (in general, the share of the control response that was lost under treatment) at 10 µM in assay [2] worked out at 88%.
`CS(=O)(=O)c1ccc(/C(=C2\CCN(C3CCCCC3)C2=O)c2ccc(Cl)cc2)cc1` [29 Z isomer] returned an inhibition at 100 µM in assay [1] of 72%. The molecule also showed an inhibition at 10 µM in assay [2] of 86%.
Regarding `CS(=O)(=O)c1ccc(/C(=C2\CCSC2=O)c2ccc(Cl)cc2)cc1` [80 Z isomer], it took a dose of 13.7 mg/kg to reach the 50% effect level in assay [3] (ED50). Also, in assay [2], it took 120 nM to reach half-maximal inhibition (IC50).
`Cc1cc(/C(=C2/CCN(C)C2=O)c2ccc(S(C)(=O)=O)cc2)ccc1F` [56 Z isomer] returned an inhibition at 10 µM in assay [2] of 53%.
In the case of `CS(=O)(=O)c1ccc(C(=C2CCN(Cc3ccc(Br)cc3)C2=O)c2ccc(Cl)cc2)cc1` [65 Z isomer], in assay [2], the inhibition at 10 µM turned out to be 83%.
Consider `CCN1CC/C(=C(/c2ccc(Cl)cc2)c2ccc(S(C)(=O)=O)cc2)C1=O` [32 Z isomer], for which at 100 µM the inhibition in assay [1] was 13%. In assay [2], the inhibition at 10 µM amounted to 84% and half-maximal inhibition (IC50) was put at 2530 nM.
`CN1CC/C(=C(/c2ccc(Cl)cc2)c2ccc(S(C)(=O)=O)cc2)C1=O` [28 Z isomer] gave an inhibition at 100 µM in assay [1] of 6%. For the same molecule, in assay [2], 10 µM produced 77% inhibition and the IC50 (as a rule, the midpoint of a concentration-inhibition curve) is 2940 nM.
Regarding `CS(=O)(=O)c1ccc(/C(=C2\SC(=S)NC2=O)c2ccc(Cl)cc2)cc1` [78 E isomer], 100 µM produced 37% inhibition in assay [1]. In assay [2], the inhibition at 10 µM is 72% and the IC50 was determined as 1540 nM.
The molecule `COc1ccc(/C(=C2/CCN(C)C2=O)c2ccc(S(C)(=O)=O)cc2)cc1` [55 E isomer] came in with an inhibition at 10 µM in assay [2] of 44%.
In assay [2], `CS(=O)(=O)c1ccc(C(=C2CCN(Cc3ccccc3)C2=O)c2ccc(Cl)c(Cl)c2)cc1` [61 Z isomer] registered an inhibition at 1 µM of 80% and an IC50 of 229 nM.
Consider `CN1CC/C(=C(\c2ccc(S(N)(=O)=O)cc2)c2ccc(Cl)c(Cl)c2)C1=O` [33 Z isomer], for which, in assay [2], testing at 1 µM gave an inhibition of 70% and the IC50 stood at 393 nM.
In assay [1], `CS(=O)(=O)c1ccc(C(=C2CCN(Cc3cccc(Cl)c3)C2=O)c2ccc(Cl)cc2)cc1` [62 Z isomer] had an inhibition at 100 µM of 79%. Moreover, 10 µM produced 91% inhibition in assay [2].
In assay [1], `CS(=O)(=O)c1ccc(C(=C2CCN(CCc3ccccc3)C2=O)c2ccc(Cl)cc2)cc1` [60 Z isomer] showed an inhibition at 100 µM of 32%. In assay [2], this molecule yielded an inhibition at 1 µM of 52%.
With `Cc1cccc(CN2CCC(=C(c3ccc(Cl)cc3)c3ccc(S(C)(=O)=O)cc3)C2=O)c1` [64 Z isomer], in assay [2], testing at 10 µM gave an inhibition of 59%.
For `CS(=O)(=O)c1ccc(C(=C2CCN(Cc3ccccc3Cl)C2=O)c2ccc(Cl)cc2)cc1` [63 Z isomer], the inhibition at 100 µM in assay [1] came out at 83%. The molecule further returned an inhibition at 10 µM in assay [2] of 88%.
Take `CC(=O)OCCN1CC/C(=C(/c2ccc(Cl)cc2)c2ccc(S(C)(=O)=O)cc2)C1=O` [30 Z isomer]: in assay [2], 10 µM produced 56% inhibition.
For `CS(=O)(=O)c1ccc(/C(=C2\N=C(c3ccccc3)OC2=O)c2ccc(Cl)cc2)cc1` [77 E isomer], the inhibition at 100 µM in assay [1] amounted to 90%. In assay [2], this molecule gave an inhibition at 10 µM of 77% and an IC50 of 2830 nM.
